Usually IC50 stands for the concentration that inhibits the measured activity by half.

In this assay the target is Fibroblast growth factor receptor 3 (Homo sapiens, UniProt P22607). Briefly: Inhibition of recombinant human N-terminal His6-tagged FGFR3 (447 to 761 residues) expressed in Sf21 cells using biotinylated EQEDEPEGDYFEWLE peptide as substrate preincubated for 4 hrs followed by substrate addition and measured after 1 hr in presence of ATP by FRET assay.
Chain of Fibroblast growth factor receptor 3 (P22607 whole entry, the tested form may be a part): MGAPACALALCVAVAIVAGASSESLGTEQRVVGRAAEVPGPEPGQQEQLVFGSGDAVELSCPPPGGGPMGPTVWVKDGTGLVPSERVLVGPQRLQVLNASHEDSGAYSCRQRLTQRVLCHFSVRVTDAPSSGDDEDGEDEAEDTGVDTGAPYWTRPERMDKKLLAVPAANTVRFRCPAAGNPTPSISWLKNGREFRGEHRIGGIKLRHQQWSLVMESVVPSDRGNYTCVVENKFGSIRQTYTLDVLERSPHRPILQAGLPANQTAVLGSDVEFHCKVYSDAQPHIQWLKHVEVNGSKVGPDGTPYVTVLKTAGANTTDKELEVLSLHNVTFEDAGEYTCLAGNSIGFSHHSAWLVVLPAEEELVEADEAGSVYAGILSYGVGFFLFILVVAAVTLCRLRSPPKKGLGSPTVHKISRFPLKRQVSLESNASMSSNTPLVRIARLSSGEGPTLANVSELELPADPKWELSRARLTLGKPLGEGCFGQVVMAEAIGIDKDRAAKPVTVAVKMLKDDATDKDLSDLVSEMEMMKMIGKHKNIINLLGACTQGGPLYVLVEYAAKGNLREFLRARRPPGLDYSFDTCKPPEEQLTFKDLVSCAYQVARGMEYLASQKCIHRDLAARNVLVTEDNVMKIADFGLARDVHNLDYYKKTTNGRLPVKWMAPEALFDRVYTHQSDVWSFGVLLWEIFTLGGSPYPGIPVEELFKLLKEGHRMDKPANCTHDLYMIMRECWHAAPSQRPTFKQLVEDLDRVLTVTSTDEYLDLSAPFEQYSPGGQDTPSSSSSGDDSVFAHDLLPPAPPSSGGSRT

Take `CC(C)C1C(=O)N(C)CCN1c1ccc2[nH]nc(-c3cnn(Cc4cccnc4)c3)c2n1` (stereo unspecified): the IC50 was below 10 nM.
For the compound `Cn1cc(-c2n[nH]c3ccc(N4CCn5cnc(C(F)(F)F)c5C4)nc23)cn1`, the IC50 was below 10 nM.
Turning to `CC(C)C1C(=O)N(C)CCN1c1ccc2[nH]nc(-c3cnn(C)c3)c2n1` (stereo unspecified), the IC50 is below 10 nM.
The same measure for `CN1CCN(c2ccc3[nH]nc(-c4cnn(C)c4)c3n2)C(C2CC2)C1=O` (stereo unspecified): below 10 nM; for `CC(C)C1C(=O)N(C)CCN1c1ccc2[nH]nc(-c3cc4cnccc4s3)c2n1` (stereo unspecified): below 10 nM.
On to `CC1CN(c2ccc3[nH]nc(-c4cnn(C)c4)c3n2)C(C)C(=O)N1C` (stereo unspecified), for which the IC50 is below 10 nM.

These data come from ChEMBL document CHEMBL4680363, “Novel Bicyclic Heterocycles as FGFR Inhibitors for Treating Cancer” (ACS Med Chem Lett, 2021).
